PubChem BioAssay AID330 (DTP/NCI, 2004)
Values joined by “and” are separate entries in the source; they are usually repeats but may differ in a detail not shown here. Equal values may be shown once. Toxic doses and inconclusive results are not listed. How the source made its calls: active means survival T/C of 150% or more; inactive means T/C below 125% in these data.

Test system: P388 leukemia ip, CD2F1 mice, survival T/C
Experiment: NCI In Vivo Anticancer Drug Screen. Data for tumor model P388 Leukemia (intraperitoneal) in CD2F1 (CDF1) mice
Conditions: endpoint: median survival time, higher = longer survival
In short: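 Mice carrying the transplanted tumor received test compound or vehicle. Survival was recorded in each group, and the value is the treated-group measurement divided by that of the vehicle-treated control group.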

[1] = dose: 100.0 mg/kg/injection, schedule: Q01DX001 (ip), vehicle: saline with Tween-80
[2] = dose: 200.0 mg/kg/injection, schedule: Q01DX001 (ip), vehicle: saline with Tween-80
[3] = dose: 400.0 mg/kg/injection, schedule: Q01DX001 (ip), vehicle: saline with Tween-80
[4] = dose: 50.0 mg/kg/injection, schedule: Q01DX009 (ip), vehicle: saline with Tween-80
[5] = dose: 100.0 mg/kg/injection, schedule: Q04DX003 (ip), vehicle: saline with Tween-80
[6] = dose: 60.0 mg/kg/injection, schedule: Q01DX005 (ip), vehicle: Klucel (hydroxypropylcellulose) (HPC)
[7] = dose: 120.0 mg/kg/injection, schedule: Q01DX005 (ip), vehicle: Klucel (hydroxypropylcellulose) (HPC)
[8] = dose: 240.0 mg/kg/injection, schedule: Q01DX005 (ip), vehicle: Klucel (hydroxypropylcellulose) (HPC)
[9] = dose: 25.0 mg/kg/injection, schedule: Q01DX005 (ip), vehicle: saline with Tween-80
[10] = dose: 100.0 mg/kg/injection, schedule: Q01DX005 (ip), vehicle: saline with Tween-80

Measured: T/C

Cc1cc(C)c(CCl)cc1CCl
inactive: dose: 20.0 mg/kg/injection, schedule: Q04DX003 (ip), vehicle: saline with Tween-80 113 % of control | dose: 40.0 mg/kg/injection, schedule: Q04DX003 (ip), vehicle: saline with Tween-80 118 % of control | dose: 80.0 mg/kg/injection, schedule: Q04DX003 (ip), vehicle: saline with Tween-80 90 % of control

CN(C)/C(=C(\CBr)C(=O)c1ccc(-c2ccccc2)cc1)c1ccccc1
inactive: dose: 12.5 mg/kg/injection, schedule: Q01DX005 (ip), vehicle: Klucel (hydroxypropylcellulose) (HPC) 108 % of control | dose: 25.0 mg/kg/injection, schedule: Q01DX005 (ip), vehicle: Klucel (hydroxypropylcellulose) (HPC) 105 % of control | dose: 50.0 mg/kg/injection, schedule: Q01DX005 (ip), vehicle: Klucel (hydroxypropylcellulose) (HPC) 105 % of control and 107 % of control

COC(=O)C(Cc1ccccc1)NC(=O)C(C)NC(=O)c1ccc(OC)cc1 (centres undefined)
inactive: [1] 100 % of control | [2] 100 % of control | [3] 93 % of control

c1ccc(C2=NNC(c3ccccn3)=C3CCCCCCC3=N2)nc1
inactive: dose: 5.3 mg/kg/injection, schedule: Q01DX009 (ip), vehicle: water 110 % of control | dose: 8.0 mg/kg/injection, schedule: Q01DX009 (ip), vehicle: water 112 % of control | dose: 12.0 mg/kg/injection, schedule: Q01DX009 (ip), vehicle: water 112 % of control | dose: 18.0 mg/kg/injection, schedule: Q01DX009 (ip), vehicle: water 110 % of control | dose: 25.0 mg/kg/injection, schedule: Q01DX009 (ip), vehicle: water 111 % of control | dose: 50.0 mg/kg/injection, schedule: Q01DX009 (ip), vehicle: water 117 % of control

S=c1[nH]nc(NC2CCCCC2)s1
inactive: [4] 90 % of control | dose: 100.0 mg/kg/injection, schedule: Q01DX009 (ip), vehicle: saline with Tween-80 90 % of control | [5] 91 % of control | dose: 200.0 mg/kg/injection, schedule: Q01DX009 (ip), vehicle: saline with Tween-80 90 % of control | dose: 200.0 mg/kg/injection, schedule: Q04DX003 (ip), vehicle: saline with Tween-80 91 % of control

O=C1CSC(c2ccc(Cl)c([N+](=O)[O-])c2)N1c1nncs1 (centres undefined)
inactive: [6] 99 % of control | [7] 100 % of control | [8] 97 % of control

CCN1c2ccccc2CC(C#N)(CCN(C)C)c2ccccc21 (centres undefined)
inactive: dose: 12.5 mg/kg/injection, schedule: Q01DX009 (ip), vehicle: saline with Tween-80 100 % of control | dose: 25.0 mg/kg/injection, schedule: Q01DX009 (ip), vehicle: saline with Tween-80 99 % of control | [4] 104 % of control

CS(=O)CC1OC2OC3C(CO)OC(OC4C(CO)OC(OC5C(CO)OC(OC6C(CO)OC(OC7C(CO)OC(OC8C(CO)OC(OC1C(O)C2O)C(O)C8O)C(O)C7O)C(O)C6O)C(O)C5O)C(O)C4O)C(O)C3O (centres undefined)
inactive: dose: 60.0 mg/kg/injection, schedule: Q01DX005 (ip), vehicle: saline 100 % of control | dose: 120.0 mg/kg/injection, schedule: Q01DX005 (ip), vehicle: saline 106 % of control | dose: 240.0 mg/kg/injection, schedule: Q01DX005 (ip), vehicle: saline 104 % of control

CC(C)(CO)C(O)C(=O)NCCCO (centres undefined)
inactive: dose: 50.0 mg/kg/injection, schedule: Q01DX009 (ip), vehicle: saline 103 % of control | dose: 100.0 mg/kg/injection, schedule: Q01DX009 (ip), vehicle: saline 98 % of control | dose: 200.0 mg/kg/injection, schedule: Q01DX009 (ip), vehicle: saline 100 % of control

OCCCCc1ccccc1
inactive: [1] 104 % of control | [2] 100 % of control | [3] 100 % of control

Cc1[nH]c(=O)n(C(C)C)c(=O)c1Br
inactive: dose: 100.0 mg/kg/injection, schedule: Q01DX001 (ip), vehicle: saline sonified 100 % of control | dose: 200.0 mg/kg/injection, schedule: Q01DX001 (ip), vehicle: saline sonified 100 % of control | dose: 400.0 mg/kg/injection, schedule: Q01DX001 (ip), vehicle: saline sonified 100 % of control

CC(C)/C=C1\C(=O)NCC(=O)N1Cc1ccccc1
inactive: dose: 75.0 mg/kg/injection, schedule: Q01DX001 (ip), vehicle: Klucel (hydroxypropylcellulose) (HPC) 103 % of control | dose: 150.0 mg/kg/injection, schedule: Q01DX001 (ip), vehicle: Klucel (hydroxypropylcellulose) (HPC) 100 % of control | dose: 300.0 mg/kg/injection, schedule: Q01DX001 (ip), vehicle: Klucel (hydroxypropylcellulose) (HPC) 94 % of control

CC1=CC(C)=C(C#N)C2=S=C(c3ccccc3)C(=O)N12
inactive: dose: 6.25 mg/kg/injection, schedule: Q01DX005 (ip), vehicle: saline with Tween-80 97 % of control | dose: 12.5 mg/kg/injection, schedule: Q01DX005 (ip), vehicle: saline with Tween-80 94 % of control | [9] 94 % of control | [10] 88 % of control | dose: 200.0 mg/kg/injection, schedule: Q01DX005 (ip), vehicle: saline with Tween-80 88 % of control

CC(C)=C/C(C)=N/NC(N)=O
inactive: dose: 12.5 mg/kg/injection, schedule: Q04DX003 (ip), vehicle: saline with Tween-80 98 % of control | dose: 25.0 mg/kg/injection, schedule: Q04DX003 (ip), vehicle: saline with Tween-80 94 % of control | dose: 50.0 mg/kg/injection, schedule: Q04DX003 (ip), vehicle: saline with Tween-80 91 % of control | [5] 94 % of control

Cc1ccc(C)c(NC(=O)Nc2ccc(C(=O)O)cc2)c1
inactive: dose: 50.0 mg/kg/injection, schedule: Q01DX009 (ip), vehicle: Klucel (hydroxypropylcellulose) (HPC) 105 % of control | dose: 100.0 mg/kg/injection, schedule: Q01DX009 (ip), vehicle: Klucel (hydroxypropylcellulose) (HPC) 105 % of control | dose: 200.0 mg/kg/injection, schedule: Q01DX009 (ip), vehicle: Klucel (hydroxypropylcellulose) (HPC) 102 % of control

COC(=O)C(N)C(F)c1ccccc1 (centres undefined)
inactive: [6] 107 % of control | [7] 100 % of control | [8] 98 % of control

C=Cn1c([N+](=O)[O-])cnc1/C=C/c1ccc(C(=O)N(CCCC)CCCC)cc1
inactive: dose: 100.0 mg/kg/injection, schedule: Q04DX002 (ip), vehicle: saline with Tween-80 100 % of control | dose: 200.0 mg/kg/injection, schedule: Q04DX002 (ip), vehicle: saline with Tween-80 100 % of control | dose: 400.0 mg/kg/injection, schedule: Q04DX002 (ip), vehicle: saline with Tween-80 89 % of control

Cc1cc(C)cc(C(=O)NC(c2ccncc2)C(NC(=O)c2cc(C)cc(C)c2)c2ccncc2)c1 (centres undefined)
inactive: [9] 92 % of control | dose: 50.0 mg/kg/injection, schedule: Q01DX005 (ip), vehicle: saline with Tween-80 90 % of control | [10] 99 % of control | dose: 400.0 mg/kg/injection, schedule: Q01DX005 (ip), vehicle: saline with Tween-80 92 % of control

CC/C(C)=C1\OC(=O)C(C)C(O)C(Cc2cccnc2)NC(=O)C(NC(=O)c2ncccc2O)C(C)OC1=O (centres undefined)
inactive: dose: 18.75 mg/kg/injection, schedule: Q01DX009 (ip), vehicle: saline with Tween-80 88 % of control | dose: 37.5 mg/kg/injection, schedule: Q01DX009 (ip), vehicle: saline with Tween-80 86 % of control | dose: 150.0 mg/kg/injection, schedule: Q01DX009 (ip), vehicle: saline with Tween-80 86 % of control

Cc1oc(-c2ccc(F)cc2)nc1C(N)=O
inactive: dose: 100.0 mg/kg/injection, schedule: Q01DX001 (ip), vehicle: Klucel (hydroxypropylcellulose) (HPC) 97 % of control | dose: 200.0 mg/kg/injection, schedule: Q01DX001 (ip), vehicle: Klucel (hydroxypropylcellulose) (HPC) 94 % of control | dose: 400.0 mg/kg/injection, schedule: Q01DX001 (ip), vehicle: Klucel (hydroxypropylcellulose) (HPC) 101 % of control
